# Test results as given in US5545647A, “3-phenylpyrrolidine derivatives” (Mitsubishi Chemical Corporation, priority 1994, dated 1996).
# pIC50: −log10 of the molar value.
# Assays:
# [1] = test system: Phosphodiesterase (PDE) IV; test: Action to Phosphodiesterase (PDE) IV Enzyme Activities (3H-cAMP hydrolysis, enzyme from U-937 cells); assay type: biochemical; conditions: human histiocytic lymphoma (U-937) cytoplasm fraction enzyme; 0.4 μM 3H-cAMP; pH 8.0; 15 minutes at 30° C.; read-out: PDE IV inhibitory activity IC50
# Protocol: Action to Phosphodiesterase (PDE) IV Enzyme Activities
# Enzyme was partialy purified from human histiocytic lymphoma(U-937) cytoplasm fraction by means of the Q-sepharose column according to the method of Nicholson and collaborators [Br. J. Pharmacol., 97, 889 (1989)], and was reacted in a solution of 0.1 mg/ml BSA (bovine serum albumin), 1 mM EDTA (ethylenediaminetetra acetic acid), 5 mM MgCl2 and 50 mM Tris-buffer (pH 8.0) for 15 minutes at 30° C. using 0.4 μM ^3 H-cAMP as substrate according to the method of Hidaka and collaborators [Biochem. Med., 10, 301 (1974)]. ^3 H-5'-AMP generated was separated by means of the cation exchange column, and the enzyme activity was determined by measuring a radioactivity amount.
# A test compound was added. After incubation for 15 minutes at 30° C., the substrate was added. Inhibition ratios were derived for respective concentrations assuming that the reaction without the test compound was 100%. By using the probit analysis, the concentration (IC50) showing the inhibition rate of 50% was derived.
# PDE IV = conditions: Adv. Second Messenger Phosphoprotein Res., 22, 1 (1988); cited from earlier work
pIC50 [1],Compound,specific inhibition to PDE IV (PDE IV)
8.00,COc1ccc(C2CCN(C(=O)OC(C)(C)C)C2)cc1OC1CCCC1 (centres unmarked) [Compound No. 1],–
8.22,CCCCOC(=O)N1CCC(c2ccc(OC)c(OC3CCCC3)c2)C1 (centres unmarked) [compound 6],–
8.22,COc1ccc(C2CCN(C(=O)OCc3ccccc3)C2)cc1OC1CCCC1 (centres unmarked) [compound 3],–
7.72,COc1ccc(C2CCN(C(=O)OC(C)(C)C)C2)cc1OC1CCOC1 (centres unmarked) [compound 8],–
7.64,COc1ccc(C2CCN(C(=O)OCc3ccc[n+]([O-])c3)C2)cc1OC1CCCC1 (centres unmarked) [compound 17],–
8.00,COc1ccc(C2CCN(C(=S)OCc3cccnc3)C2)cc1OC1CCCC1 (centres unmarked) [compound 40],–
7.70,COc1ccc(C2CCN(C(=O)c3ccccc3)C2)cc1OC1CCCC1 (centres unmarked) [compound 7],–
8.48,"COc1ccc(C2CCN(C(=O)OCc3cccnc3)C2)cc1OC1CCCC1 (racemic) [Compound No. 13, (±)-3-(3-cyclopentyloxy-4-methoxyphenyl)-l-(3pyridylmethoxycarbonyl) pyrrolidine]",–
7.60,COc1cc2c(cc1OC)CN(C(=O)N1CCC(c3ccc(OC)c(OC4CCCC4)c3)C1)CC2 (centres unmarked) [compound 32],–
7.72,COc1ccc(C2CCN(C(=O)OCc3ccnc(Cl)c3)C2)cc1OC1CCCC1 (centres unmarked) [compound 37],–
8.06,COc1ccc(C2CCN(C(=O)OCc3cccc[n+]3[O-])C2)cc1OC1CCCC1 (centres unmarked) [compound 26],–
8.96,"COc1ccc(C2CCN(C(=O)OCc3cccnc3)C2)cc1OC1CCCC1 (single isomer, unassigned; (-)) [Compound No. 48, (-)-3-(3-cyclopentyloxy-4-methoxyphenyl)-1-(3-pyridylmethoxycarbonyl) pyrrolidine]",–
7.64,COc1ccc(C2CCN(C(=O)OCc3ccc(Cl)nc3)C2)cc1OC1CCCC1 (centres unmarked) [compound 38],–
6.52,"COc1ccc(C2CNC(=O)C2)cc1OC1CCCC1 (centres unmarked) [roliplam, reference compound]",specific inhibition to PDE IV
7.96,"CCOC(=O)N1CCC(c2ccc(OC)c(OC3CCCC3)c2)C1 (centres unmarked) [Compound No. 4, 3-(3-cyclopentyloxy-4-methoxyphenyl)-1-(ethoxycarbonyl) pyrrolidine]",–
8.10,COc1ccc(C2CCN(C(=O)OCc3cccnn3)C2)cc1OC1CCCC1 (centres unmarked) [compound 42],–
7.96,COc1ccc(C2CCN(C(=O)OCCc3ccccn3)C2)cc1OC1CCCC1 (centres unmarked) [compound 36],–
8.42,COc1ccc(C2CCN(C(=O)OCc3ccncc3)C2)cc1OC1CCCC1 (centres unmarked) [compound 19],–
8.64,COc1ccc(C2CCN(C(=O)OCc3ccccn3)C2)cc1OC1CCCC1 (centres unmarked) [compound 24],–
